Experimental data taken from patent US20090098050A1, “CALCIUM BINDING PEPTIDES” (THE REGENTS OF THE UNVERSITY OF CALIFORNIA, priority 2005, published 2009).

Experiments:
[1] = Binding of fluorescein-labeled peptides to hydroxyapatite nanocrystals (Langmuir isotherm); conditions: fluorescein-labeled peptide 0-100 μM, 0.3 mg hydroxyapatite, ten minutes, Langmuir fit
Protocol: FIG. 1: Binding affinities of DSS and DSS variant peptides for hydroxyapatite and tooth surfaces. A-C. Fluorescein-labeled peptides at concentrations ranging from 0-100 μM were incubated with 0.3 mg of hydroxyapatite nanocrystals (specific surface area=100 m^2/g) for ten minutes, followed by removal of the hydroxyapatite by centrifugation. The amount of peptide in the mixture before and after hydroxyapatite removal was determined by Abs480. Isotherms were plotted and fit to the Langmuir equation to extract values for KA, a constant reflecting the affinity of the peptide for the hydroxyapatite surface. D. Sagitally sectioned human teeth were incubated with 12.5 μM 5(6) carboxyfluorescein-labeled 6DSS peptide for ten minutes, followed by rinsing. Peptide binding to tooth surfaces was visualized by Confocal Laser Scanning Microscopy (CLSM) using blue laser illumination (λA=488 nm) and a FITC emission filter. Left side, light colored region: dentin. Right side, dark colored region: enamel.
Four DSS peptides containing two (2DSS, SEQ ID NO:12), four (4DSS, SEQ ID NO:13), six (6DSS, SEQ ID NO:14), or eight(8DSS, SEQ ID NO:15) Asp-Ser-Ser (DSS) repeats were generated. Peptides were labeled with fluorescein, and various concentrations of the labeled peptides (0-100 μM) were mixed with a fixed amount (0.3 mg) of hydroxyapatite nanocrystals having a specific surface area of 100 m^2/g (Berkeley Advanced Biomaterials, Inc.). Samples were incubated for ten minutes, followed by removal of the hydroxyapatite by centrifugation. The amount of peptide in the mixture was measured both before and after hydroxyapatite removal by spectroscopic absorbance at 480 nm (the peak absorbance of the fluorescein label). The amount of peptide bound was calculated by comparing the ratio of the final (Af) and initial (Ai) absorbances to the initial concentration (P0) [Pbound=[…]]. Plots were generated illustrating the amount of peptide bound per m^2 of hydroxyapatite surface area versus concentration of unbound peptide at equilibrium. The resulting isotherms were fit to the Langmuir isotherm (x/m=(KANMaxCeq)/(1+KACeq)) (Calis 1995), which describes the binding activity of a molecule in terms of a combination of binding affinity (KA) and avidity (NMax). KA represents the affinity constant of the peptide for the hydroxyapatite surface. In this equation, x/m represents the molar amount of peptide bound per unit of hydroxyapatite surface area, NMax represents the maximum surface concentration (mol/m^2), and Ceq represents the molar concentration of unbound peptide at equilibrium. The Langmuir isotherm describes the binding of molecules to surfaces with the conditions that 1) all binding sites have the same affinity for the peptide, and 2) the peptide will form a monolayer on the surface but cannot accumulate to higher levels. The excellent fit of the Langmuir isotherm to the experimental data validates these conditions, and these affinity constants were used for comparisons between peptides.

[2] = Remineralization of demineralized rat femur (SEM); conditions: peptide one hour, then Quell Desensitizer
Protocol: FIG. 7: Mineralization of bone. Rat femurs were obtained from sacrificed animals under a shared tissue protocol. Samples were demineralized, rinsed, and ultrasonicated to remove debris. Test samples were treated with 8DSS peptide for one hour, rinsed, remineralized using Quell Desensitizer as described in Example 8, then imaged by Scanning Electron Microscopy. SEM images are shown. Top: untreated sample, showing the surface of the bone completely covered by mineral. Center: demineralized sample, showing Haversian canals exposed by removal of the mineral layer. Bottom: Bone treated with 8DSS and Quell Desensitizer (an aqueous CaCl2/K2HPO4 solution), showing reestablishment of the mineral layer.
In order to determine whether the remineralization results observed for tooth tissues can be extended to bone, rat femurs were obtained from sacrificed animals under a shared tissue protocol. Test samples were demineralized with 19% EDTA gel for one hour, followed by immersion in deionized water and ultrasonication to remove excess debris. Test samples were then treated with 8DSS peptide for one hour, rinsed, and half of the samples were remineralized using Quell Desensitizer (Pentron Clinical Technologies, LLC) as described in Example 5. All samples were then prepared for SEM and imaged as in Example 5. […] In the demineralized sample, the Haversian canals were clearly exposed (FIG. 7, middle panel). […]

[3] = Nucleation of hydroxyapatite on tooth enamel and dentin (SEM); parameters: species or system human; conditions: 12.5 μM peptide, SBFn 4 hours then SBFg
Protocol: FIG. 5: Nucleation of hydroxyapatite on enamel (top) and dentin (bottom) surfaces. Surfaces were prepared and treated as described in Example 6 and as indicated by the labels, followed by imaging using Scanning Electron Microscopy. The upper group (top two rows) represents enamel samples, while the lower group (bottom two rows) represents dentin samples. Within each group, the top row represents samples that were not demineralized prior to treatment, and the bottom row represents samples that were demineralized by treatment with phosphoric acid. Scanning Electron Micrographs are shown, scale bars=[…]. Left column: samples that were not exposed to any treatment prior to nucleation and crystal growth. Center column: samples that were exposed to buffer only prior to nucleation and crystal growth. Right column: samples that were exposed to 12.5 μM 8DSS peptide prior to nucleation and crystal growth. Crystal growth indicates early nucleation. To determine whether applying DSS to various preparations of tissue promoted HA nucleation, which could ultimately lead to tissue remineralization, sagittally sectioned adult human teeth (obtained after extraction during normal clinical practice) were polished using a Streurs grinding wheel, and prepared for nucleation experiments. […]

With “8DSS: peptide containing eight Asp-Ser-Ser (DSS) repeats, SEQ ID NO:15 (DSSDSSDSSDSSDSSDSSDSSDSS; calcium binding peptide containing eight DSS repeats, 8DSS)” the “KA, affinity constant of the peptide for the hydroxyapatite surface” value [1] was 300,000 M^−1, the “Remineralization of demineralized bone surface” value [2] was “the mineral surface was restored and occlusion of the canals was observed” and the “Crystal growth (nucleation) on demineralized enamel” value [3] was “significant crystal growth”. The “Crystal growth (nucleation) on nondemineralized dentin” value [3] was “most significant growth”.
